Experimental data: patent publication US20260015344A1, “PAN-KRAS INHIBITORS” (Mirati Therapeutics, Inc., priority 2022, published 2026)

Assays:
[1] = biological target: T1, KRas^G12D (Homo sapiens, UniProt P01116, G12D); test: KRas Binding Assay (TR-FRET displacement), KRas G12D; settings: TR-FRET tracer displacement
T1 construct: corresponding to amino acids 1-169, produced at Accelegan Inc; biotin (biotinylated); purchased Accelegan Inc
Description: (§1) This Example illustrates that exemplary compounds of the present invention bind to KRas and are capable of displacing a labeled tracer ligand occupying the KRas binding site. KRas^WT, KRas^G12A, KRas^G12C, KRas^G12D, KRas^G12R, KRas^G12S, KRas^G12V, KRas^G13D, or KRas^Q61H was used in the assay.
(§2) The ability of a compound to bind to KRas was measured using a TR-FRET displacement assay. Biotinylated KRas (corresponding to amino acids 1-169, produced at Accelegan Inc.) was incubated with custom made Cy5 labelled tracer, terbium streptavidin (Cisbio Inc.) and compound (1% DMSO final) in buffer (50 mM HEPES, pH 7.5, 5 mM MgCl2, 0.005% Tween-20 and 1 mM DTT). After a 60-minute incubation at room temperature, the reaction was measured using a BMG LABTECH CLARIO star Plus via TR-FRET. […] The POC values were fit to a 4-parameter IC50 equation and the IC50 value reported.

[2] = biological target: T2, KRas^G12V (Homo sapiens, UniProt P01116, G12V); test: KRas Binding Assay (TR-FRET displacement), KRas G12V; settings: TR-FRET tracer displacement
T2 construct: corresponding to amino acids 1-169, produced at Accelegan Inc; biotin (biotinylated); purchased Accelegan Inc
T2 sequence (P01116 1-169 isoform P01116-2 G12V): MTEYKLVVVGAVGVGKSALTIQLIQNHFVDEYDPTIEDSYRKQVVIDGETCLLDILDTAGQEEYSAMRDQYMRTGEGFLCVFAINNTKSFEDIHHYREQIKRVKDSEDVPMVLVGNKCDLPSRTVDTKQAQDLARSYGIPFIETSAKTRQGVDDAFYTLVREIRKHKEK
Description: as §1, §2

[3] = biological target: T3, KRas^G12R (Homo sapiens, UniProt P01116, G12R); test: KRas Binding Assay (TR-FRET displacement), KRas G12R; settings: TR-FRET tracer displacement
T3 construct: corresponding to amino acids 1-169, produced at Accelegan Inc; biotin (biotinylated); purchased Accelegan Inc
T3 sequence (P01116 1-169 isoform P01116-2 G12R): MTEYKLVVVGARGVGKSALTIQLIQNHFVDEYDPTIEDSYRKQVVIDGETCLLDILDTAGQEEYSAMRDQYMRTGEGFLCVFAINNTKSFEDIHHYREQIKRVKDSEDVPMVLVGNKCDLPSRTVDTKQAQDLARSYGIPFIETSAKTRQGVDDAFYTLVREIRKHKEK
Description: as §1, §2

[4] = biological target: T4, KRas^WT (Homo sapiens, UniProt P01116); test: KRas Binding Assay (TR-FRET displacement), KRas WT; settings: TR-FRET tracer displacement
T4 construct: corresponding to amino acids 1-169, produced at Accelegan Inc; biotin (biotinylated); purchased Accelegan Inc
T4 sequence (P01116 1-169 isoform P01116-2): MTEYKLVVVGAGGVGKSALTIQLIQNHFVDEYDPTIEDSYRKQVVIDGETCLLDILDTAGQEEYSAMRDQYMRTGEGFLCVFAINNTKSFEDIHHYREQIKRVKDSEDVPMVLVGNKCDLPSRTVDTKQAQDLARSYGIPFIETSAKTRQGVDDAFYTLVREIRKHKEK
Description: as §1, §2

[5] = biological target: T5, KRas^G13D (Homo sapiens, UniProt P01116, G13D); test: KRas Binding Assay (TR-FRET displacement), KRas G13D; settings: TR-FRET tracer displacement
T5 construct: corresponding to amino acids 1-169, produced at Accelegan Inc; biotin (biotinylated); purchased Accelegan Inc
T5 sequence (P01116 1-169 isoform P01116-2 G13D): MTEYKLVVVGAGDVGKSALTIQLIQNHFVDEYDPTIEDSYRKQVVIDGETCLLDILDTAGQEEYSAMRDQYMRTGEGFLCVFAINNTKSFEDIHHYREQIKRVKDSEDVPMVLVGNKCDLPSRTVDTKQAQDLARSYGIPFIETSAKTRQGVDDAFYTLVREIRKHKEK
Description: as §1, §2

[6] = biological target: T6, KRas^Q61H (Homo sapiens, UniProt P01116, Q61H); test: KRas Binding Assay (TR-FRET displacement), KRas Q61H; settings: TR-FRET tracer displacement
T6 construct: corresponding to amino acids 1-169, produced at Accelegan Inc; biotin (biotinylated); purchased Accelegan Inc
T6 sequence (P01116 1-169 isoform P01116-2 Q61H): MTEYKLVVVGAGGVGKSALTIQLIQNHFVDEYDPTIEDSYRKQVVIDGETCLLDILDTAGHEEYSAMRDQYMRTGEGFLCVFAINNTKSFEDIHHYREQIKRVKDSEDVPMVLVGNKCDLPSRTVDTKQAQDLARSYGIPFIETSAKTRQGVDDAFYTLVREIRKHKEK
Description: as §1, §2

[7] = biological target: T7, KRas^G12A (Homo sapiens, UniProt P01116, G12A); test: KRas Binding Assay (TR-FRET displacement), KRas G12A; settings: TR-FRET tracer displacement
T7 construct: corresponding to amino acids 1-169, produced at Accelegan Inc; biotin (biotinylated); purchased Accelegan Inc
T7 sequence (P01116 1-169 isoform P01116-2 G12A): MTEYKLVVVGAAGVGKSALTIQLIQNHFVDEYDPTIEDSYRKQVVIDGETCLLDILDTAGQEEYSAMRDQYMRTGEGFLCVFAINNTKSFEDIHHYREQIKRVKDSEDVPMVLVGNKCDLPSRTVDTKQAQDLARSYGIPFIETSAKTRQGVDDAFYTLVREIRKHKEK
Description: as §1, §2

[8] = biological target: T8, KRas^G12C (Homo sapiens, UniProt P01116, G12C); test: KRas Binding Assay (TR-FRET displacement), KRas G12C; settings: TR-FRET tracer displacement
T8 construct: corresponding to amino acids 1-169, produced at Accelegan Inc; biotin (biotinylated); purchased Accelegan Inc
T8 sequence (P01116 1-169 isoform P01116-2 G12C): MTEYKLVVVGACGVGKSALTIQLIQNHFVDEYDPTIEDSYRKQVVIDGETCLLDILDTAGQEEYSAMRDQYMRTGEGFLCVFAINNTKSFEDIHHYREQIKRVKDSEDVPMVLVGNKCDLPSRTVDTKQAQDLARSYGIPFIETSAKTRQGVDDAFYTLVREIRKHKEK
Description: as §1, §2

[9] = biological target: T9, KRas^G12S (Homo sapiens, UniProt P01116, G12S); test: KRas Binding Assay (TR-FRET displacement), KRas G12S; settings: TR-FRET tracer displacement
T9 construct: corresponding to amino acids 1-169, produced at Accelegan Inc; biotin (biotinylated); purchased Accelegan Inc
T9 sequence (P01116 1-169 isoform P01116-2 G12S): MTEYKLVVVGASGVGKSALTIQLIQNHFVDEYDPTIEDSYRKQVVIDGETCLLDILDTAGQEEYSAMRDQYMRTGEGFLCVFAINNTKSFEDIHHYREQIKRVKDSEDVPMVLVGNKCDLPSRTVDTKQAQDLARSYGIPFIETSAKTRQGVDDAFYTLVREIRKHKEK
Description: as §1, §2

[10] = test system: KRas-mediated Phosphorylation of ERK in AsPC-1 cells; test: HTRF pERK assay, AsPC-1 cells; type: cell-based; settings: Homo sapiens, ASPC1, 3 hrs compound incubation, read-out: Inhibition (HTRF IC50 nM) of KRas-mediated Phosphorylation of ERK, AsPC-1
Description: (§3) • Day 1: Seed 6,000 cells/well-25 μl/well in 384-well white solid bottom plate; RPM1_10% FBS.
(§4) • 1. To harvest cells from flask using 0.05% Trypsin/EDTA solution. Add 10 mL of media to stop trypsinizing. Pipette the cells into a conical bottom 50 mL centrifuge tube and centrifuge 5 min×1000 rpm. • 2. Re-suspend the cell pellet in media, take a cell count, and then adjust the cell density using fresh media. • 3. Seed 6,000 cells into cell culture plate with 50 μL media. The • 4. Incubate cell plate overnight in a 37° C., 5% CO2 incubator.
(§5) • 1. Use Tecan to complete the compound addition. Compounds start from 10 uM top, 3-fold dilution, and 10 doses. The final DMSO concentration is 0.8%. Dispensed 0.2 uM Trametinib as Min control. • 2. Incubate cell plate for 3 hrs in the incubator. Detection with Cisbio pERK HTRF Kit • 1. Dilute 1 volume of 4× lysis buffer with 3 volumes of deionized water. Then, add 100× the blocking reagent. Keep lysis buffer on the ice. • 2. At the end of the compound treatment, flick-off the media. • 3. Add 35 μL of lysis buffer per well using a Multidrop Combi. Then place on a plate agitator shaking at 300 rpm at 4° C. for 40 mins. • 4. Make up the HTRF antibody buffer. For each assay plate, mix 50 μL of d2-conjugate antibody with 950 μL of detection buffer. Similarly, mix 50 μL of Cryptate antibody with 950 μL of detection buffer. Then mix the two diluted antibodies together. • 5. Dispense 3.4 μL the antibody buffer to wells of an empty assay plate. Seal the plate and centrifuge plate 30 sec×1000 rpm. • 6. At the end of the 4° C. lysis, centrifuge the lysate plates 3 mins×1500 rpm. • 7. Use the Bravo to transfer 13.6 μL of lysate from cell culture plate to assay plate. Then incubate assay plate for 2 hrs at room temperature. • 8. At the end of incubation, read plate on the Envision after centrifuging plate 30 sec×1000 rpm.

[11] = test system: KRas-mediated Phosphorylation of ERK in H727 cells; test: HTRF pERK assay, H727 cells; type: cell-based; settings: Homo sapiens, NCI-H727, 3 hrs compound incubation, read-out: Inhibition (HTRF IC50 nM) of KRas-mediated Phosphorylation of ERK, H727
Description: as §3, §4, §5

T1 sequence (P01116 1-169 isoform P01116-2 G12D): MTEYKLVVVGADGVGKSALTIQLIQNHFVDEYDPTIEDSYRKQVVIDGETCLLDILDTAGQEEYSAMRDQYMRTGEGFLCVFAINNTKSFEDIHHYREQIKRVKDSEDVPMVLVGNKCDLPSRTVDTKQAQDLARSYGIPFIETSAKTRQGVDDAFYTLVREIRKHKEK

Row | SMILES | IC50 [1] | IC50 [2] | IC50 [3] | IC50 [4] | IC50 [5] | IC50 [6] | IC50 [7] | IC50 [8] | IC50 [9] | IC50 [10] | IC50 [11]
1 | C[C@H](Oc1nc(-c2cc(C3(C)CCCc4sc(N)c(C#N)c43)sn2)cc(N2CCC[C@@](C)(O)C2)n1)[C@@H]1CCCN1C (stereo partly drawn) [Example 7, 2-amino-4-(3-(6-((R)-3-hydroxy-3-methylpiperidin-1-yl)-2-((S)-1-((S)-1-methylpyrrolidin-2-yl)ethoxy)pyrimidin-4-yl)isothiazol-5-yl)-4-methyl-4,5,6,7-tetrahydrobenzo[b]thiophene-3-carbonitrile] | 127 nM | 46 nM | 23 nM | 129 nM | 128 nM | 170 nM | 132 nM | 174 nM | 158 nM | 5840 nM | 4470 nM
2 | C[C@H](Oc1nc(-c2cc(C3(C)CCCc4sc(N)c(C#N)c43)sn2)cc(N2C[C@@H]3C[C@H](C2)[C@H](O)C3)n1)[C@@H]1CCCN1C (stereo partly drawn) [Example 8, 2-amino-4-(3-(6-((1R,5R,6R)-6-hydroxy-3-azabicyclo[3.2.1]octan-3-yl)-2-((S)-1-((S)-1-methylpyrrolidin-2-yl)ethoxy)pyrimidin-4-yl)isothiazol-5-yl)-4-methyl-4,5,6,7-tetrahydrobenzo[b]thiophene-3-carbonitrile] | 505 nM | 96 nM | 59 nM | 160 nM | 167 nM | 224 nM | 204 nM | 275 nM | 296 nM | 7400 nM | 3380 nM
3 | C[C@H](Oc1nc(-c2cc(C3(C)CCCc4sc(N)c(C#N)c43)sn2)cc(N2C[C@H]3CC[C@@H](C2)N3)n1)[C@@H]1CCCN1C (stereo partly drawn) [Example 9, 4-(3-(6-((1R,5S)-3,8-diazabicyclo[3.2.1]octan-3-yl)-2-((S)-1-((S)-1-methylpyrrolidin-2-yl)ethoxy)pyrimidin-4-yl)isothiazol-5-yl)-2-amino-4-methyl-4,5,6,7-tetrahydrobenzo[b]thiophene-3-carbonitrile] | 36 nM | 1040 nM | 1340 nM | 566 nM | 1320 nM | 2290 nM | 3080 nM | 3490 nM | 3420 nM | 3010 nM | ≥ 10000 nM
4 | C[C@H](Oc1nc(-c2cc(C3(C)CCCc4sc(N)c(C#N)c43)sn2)cc(N2CCCC3(C2)NC(=O)NC3=O)n1)[C@@H]1CCCN1C (stereo partly drawn) [Example 11, 2-amino-4-(3-(6-(2,4-dioxo-1,3,7-triazaspiro[4.5]decan-7-yl)-2-((S)-1-((S)-1-methylpyrrolidin-2-yl)ethoxy)pyrimidin-4-yl)isothiazol-5-yl)-4-methyl-4,5,6,7-tetrahydrobenzo[b]thiophene-3-carbonitrile] | 93 nM | 76 nM | 34 nM | 326 nM | 190 nM | 263 nM | 240 nM | 262 nM | 188 nM | – | –
5 | C[C@H](Oc1nc(-c2cc(C3(C)CCCc4sc(N)c(C#N)c43)sn2)cc(N2CCCn3nc(C(=O)N(C)C)cc3C2)n1)[C@@H]1CCCN1C (stereo partly drawn) [Example 12, 5-(6-(5-(2-amino-3-cyano-4-methyl-4,5,6,7-tetrahydrobenzo[b]thiophen-4-yl)isothiazol-3-yl)-2-((S)-1-((S)-1-methylpyrrolidin-2-yl)ethoxy)pyrimidin-4-yl)-N,N-dimethyl-5,6,7,8-tetrahydro-4H-pyrazolo[1,5-a][1,4]diazepine-2-carboxamide] | 623 nM | 163 nM | 156 nM | 417 nM | 584 nM | 533 nM | 551 nM | 457 nM | 596 nM | – | –

Other lines, results leading:

Row | IC50 [1] | IC50 [2] | IC50 [3] | IC50 [4] | IC50 [5] | IC50 [6] | IC50 [7] | IC50 [8] | IC50 [9] | IC50 [10] | IC50 [11] | SMILES
6 | 18 nM | 6 nM | 4 nM | 14 nM | 37 nM | 36 nM | 49 nM | 54 nM | 41 nM | – | – | C[C@H](Oc1nc(-c2noc(C3(C)CCCc4sc(N)c(C#N)c43)n2)cc(N2CCCC3(C2)NC(=O)NC3=O)n1)[C@@H]1CCCN1C (stereo partly drawn) [Example 2, 2-amino-4-(3-(6-(2,4-dioxo-1,3,7-triazaspiro[4.5]decan-7-yl)-2-((S)-1-((S)-1-methylpyrrolidin-2-yl)ethoxy)pyrimidin-4-yl)-1,2,4-oxadiazol-5-yl)-4-methyl-4,5,6,7-tetrahydrobenzo[b]thiophene-3-carbonitrile]
7 | 6 nM | 5 nM | 4 nM | 10 nM | 24 nM | 26 nM | 29 nM | 26 nM | 23 nM | – | – | C[C@H](Oc1nc(-c2noc(C3(C)CCCc4sc(N)c(C#N)c43)n2)cc(N2CCCC3(CNS(=O)(=O)N3)C2)n1)[C@@H]1CCCN1C (stereo partly drawn) [Example 4, 2-amino-4-(3-(6-(2,2-dioxido-2-thia-1,3,7-triazaspiro[4.5]decan-7-yl)-2-((S)-1-((S)-1-methylpyrrolidin-2-yl)ethoxy)pyrimidin-4-yl)-1,2,4-oxadiazol-5-yl)-4-methyl-4,5,6,7-tetrahydrobenzo[b]thiophene-3-carbonitrile]
8 | 413 nM | 62 nM | 38 nM | 69 nM | 269 nM | 233 nM | 250 nM | 313 nM | 265 nM | – | – | C[C@H](Oc1nc(-c2noc(C3(C)CCCc4sc(N)c(C#N)c43)n2)cc(N2C[C@@H]3C[C@H](C2)[C@H](O)C3)n1)[C@@H]1CCCN1C (stereo partly drawn) [Example 5, 2-amino-4-(3-(6-((1R,5R,6R)-6-hydroxy-3-azabicyclo[3.2.1]octan-3-yl)-2-((S)-1-((S)-1-methylpyrrolidin-2-yl)ethoxy)pyrimidin-4-yl)-1,2,4-oxadiazol-5-yl)-4-methyl-4,5,6,7-tetrahydrobenzo[b]thiophene-3-carbonitrile]
9 | 1830 nM | 746 nM | 669 nM | 474 nM | 1080 nM | 1110 nM | 1590 nM | 1110 nM | 1520 nM | 7720 nM | > 10000 nM | C[C@H](Oc1nc(-c2noc(C3(C)CCCc4sc(N)c(C#N)c43)n2)cc(N2CCCn3nc(C(=O)N(C)C)cc3C2)n1)[C@@H]1CCCN1C (stereo partly drawn) [Example 6, 5-(6-(5-(2-amino-3-cyano-4-methyl-4,5,6,7-tetrahydrobenzo[b]thiophen-4-yl)-1,2,4-oxadiazol-3-yl)-2-((S)-1-((S)-1-methylpyrrolidin-2-yl)ethoxy)pyrimidin-4-yl)-N,N-dimethyl-5,6,7,8-tetrahydro-4H-pyrazolo[1,5-a][1,4]diazepine-2-carboxamide]
